Measurements from PubChem BioAssay (NCI).
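Cultured in 96-well plates, cells were exposed to test compound for 48 hours across five concentrations. Abbreviation: GI50, concentration required for 50% inhibition of growth. TGI: total growth inhibition.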

How the values were obtained:
Assay in all cases: inhibition of tumour cell growth, NCI panel, 48 h
[1] = test system: 786-0 renal
[2] = test system: KM12 colon
[3] = test system: UACC-257 melanoma
[4] = test system: HL-60(TB) leukemia
[5] = test system: EKVX NSCLC
[6] = test system: SNB-19 CNS
[7] = test system: RPMI-8226 leukemia
[8] = test system: NCI/ADR-RES ovarian
[9] = test system: SR leukemia
[10] = test system: U251 CNS
[11] = test system: TK-10 renal
[12] = test system: SK-MEL-2 melanoma
[13] = test system: NCI-H522 lung
[14] = test system: PC-3 prostate
[15] = test system: HCC-2998 colon
[16] = test system: HT29 colon
[17] = test system: HOP-92 NSCLC
[18] = test system: SW-620 colon
[19] = test system: SK-MEL-5 melanoma
[20] = test system: HCT-15 colon
[21] = test system: T-47D breast
[22] = test system: K-562 leukemia
[23] = test system: IGROV1 ovarian
[24] = test system: NCI-H23 lung
[25] = test system: COLO 205 colon
[26] = test system: UO-31 renal
[27] = test system: SF-295 CNS
[28] = test system: OVCAR-3 ovarian
[29] = test system: UACC-62 melanoma
[30] = test system: LOX IMVI melanoma
[31] = test system: CCRF-CEM leukemia
[32] = test system: HOP-62 NSCLC
[33] = test system: MOLT-4 leukemia
[34] = test system: CAKI-1 renal
[35] = test system: OVCAR-8 ovarian
[36] = test system: OVCAR-5 ovarian
[37] = test system: OVCAR-4 ovarian
[38] = test system: MDA-MB-231 breast
[39] = test system: A498 renal
[40] = test system: BT-549 breast
[41] = test system: SNB-75 CNS
[42] = test system: A549 NSCLC
[43] = test system: NCI-H460 lung
[44] = test system: SF-268 CNS
[45] = test system: NCI-H226 lung
[46] = test system: MALME-3M melanoma
[47] = test system: SK-OV-3 ovarian
[48] = test system: SN12C renal
[49] = test system: RXF 393 renal
[50] = test system: MDA-MB-435
[51] = test system: MCF7 breast
[52] = test system: SF-539 CNS
[53] = test system: DU-145 prostate
[54] = test system: M14 melanoma
[55] = test system: ACHN renal
[56] = test system: SK-MEL-28 melanoma
[57] = test system: HS 578T breast
[58] = test system: HCT-116 colon

SMILES: COc1cc(C(=O)NC2CCN(C)CC2)ccc1Nc1ncc2c(n1)N(C1CCCC1)CC(F)(F)C(=O)N2C
- GI50 [1]: 90.3 nM
- TGI [1]: 6870 nM
- GI50 [2]: < 10 nM
- TGI [2]: 14100 nM
- GI50 [3]: 222 nM
- TGI [3]: 6610 nM
- GI50 [4]: < 10 nM
- TGI [4]: 22.3 nM
- GI50 [5]: 245 nM
- TGI [5]: 17500 nM
- GI50 [6]: 37.5 nM
- TGI [6]: 16800 nM
- TGI [7]: 8330 nM
- GI50 [8]: 964 nM
- TGI [8]: 15700 nM
- GI50 [9]: < 10 nM
- TGI [9]: 448 nM
- GI50 [10]: < 10 nM
- TGI [10]: 12900 nM
- GI50 [11]: 1390 nM
- TGI [11]: 14400 nM
- GI50 [12]: 2230 nM
- TGI [12]: 6560 nM
- GI50 [13]: 12.9 nM
- TGI [13]: 2920 nM
- GI50 [14]: < 24.9 nM
- TGI [14]: 21400 nM
- GI50 [15]: < 16.6 nM
- TGI [15]: 2200 nM
- GI50 [16]: < 10 nM
- TGI [16]: 11100 nM
- GI50 [17]: 100 nM
- TGI [17]: 1700 nM
- GI50 [18]: < 10 nM
- TGI [18]: 10400 nM
- GI50 [19]: < 31.1 nM
- TGI [19]: 1280 nM
- GI50 [20]: 468 nM
- TGI [20]: 13700 nM
- GI50 [21]: 177 nM
- TGI [21]: 12600 nM
- GI50 [22]: < 10 nM
- TGI [22]: 4860 nM
- TGI [23]: 16800 nM
- GI50 [24]: < 11.4 nM
- TGI [24]: 2980 nM
- GI50 [25]: < 10 nM
- TGI [25]: 64 nM
- GI50 [26]: 1660 nM
- TGI [26]: 12900 nM
- GI50 [27]: 49.1 nM
- TGI [27]: 3510 nM
- GI50 [28]: < 10 nM
- TGI [28]: 3900 nM
- GI50 [29]: < 24.6 nM
- TGI [29]: 5840 nM
- GI50 [30]: < 16.7 nM
- TGI [30]: 2370 nM
- GI50 [31]: < 10 nM
- TGI [31]: 12200 nM
- GI50 [32]: < 16.7 nM
- TGI [32]: 2610 nM
- GI50 [33]: < 10 nM
- TGI [33]: 1790 nM
- GI50 [34]: 1860 nM
- TGI [34]: 12200 nM
- GI50 [35]: < 10 nM
- TGI [35]: 18300 nM
- GI50 [36]: 18.8 nM
- TGI [36]: 12100 nM
- GI50 [37]: 264 nM
- TGI [37]: 12500 nM
- GI50 [38]: < 18.6 nM
- TGI [38]: 17300 nM
- GI50 [39]: 28 nM
- TGI [39]: 272 nM
- GI50 [40]: 98.9 nM
- TGI [40]: 15500 nM
- GI50 [41]: 19.8 nM
- TGI [41]: 16100 nM
- GI50 [42]: < 19.3 nM
- TGI [42]: 4380 nM
- GI50 [43]: < 15.2 nM
- TGI [43]: 11600 nM
- GI50 [44]: 48.7 nM
- TGI [44]: 12500 nM
- GI50 [45]: 2170 nM
- TGI [45]: 14300 nM
- GI50 [46]: 2640 nM
- TGI [46]: 10500 nM
- GI50 [47]: < 13.3 nM
- TGI [47]: 761 nM
- GI50 [48]: 124 nM
- TGI [48]: 15000 nM
- GI50 [49]: 54 nM
- TGI [49]: 11800 nM
- GI50 [50]: < 10 nM
- TGI [50]: < 10 nM
- GI50 [51]: < 10 nM
- TGI [51]: 10500 nM
- GI50 [52]: 21.5 nM
- TGI [52]: 5130 nM
- GI50 [53]: < 10 nM
- TGI [53]: 62.1 nM
- GI50 [54]: < 14.8 nM
- TGI [54]: 5090 nM
- GI50 [55]: 542 nM
- TGI [55]: 14900 nM
- GI50 [56]: 29.3 nM
- TGI [56]: 12100 nM
- GI50 [57]: 58.5 nM
- TGI [57]: 1530 nM
- GI50 [58]: < 11.8 nM
- TGI [58]: 11200 nM
